Laboratory results reported in patent US12479794B2, “Acetophenone oxime compound and application thereof” (Medshine Discovery Inc., priority 2020, dated 2025).

Legend:
S1P1 = biological target: T1, S1P1 (Homo sapiens, UniProt P21453); assay: In vitro agonistic activity on S1P1, U2OS-EDG1 cells, LiveBLAzer FRET B/G; type: cell-based
T1 construct: host or cells: U2OS
Description: Assay Example 1: In Vitro Evaluation of the Agonistic Activity of the Compounds of the Present Disclosure on S1P1
Object of the assay: To detect the agonistic activity of compounds on S1P1
• 1. Cells U2OS-EDG1 (Batch No.: Invitrogen-K1520) were taken out of a liquid nitrogen tank and placed in a 37° C. water bath to thaw quickly; • 2. The cell suspension was aspirated into a 15 ml centrifuge tube, resuspended in 5 ml of preheated medium, and centrifuged at 1000 rpm for 5 min; • 3. The supernatant was discarded. The cells were resuspended in 10 ml of medium, transferred into a T75 culture flask, and cultivated in an incubator with 5% CO2 at 37° C. II. Agonist Assay • 1. The compounds were diluted to working concentrations, and serially diluted 3-fold by Echo 555 (manufacturer: Labcyte) to obtain 10 concentrations; 200 nL of each concentration of the compound was transferred to a cell plate and centrifuged at 1000 rpm for 15 seconds; • 2. Culture medium was aspirated from the culture flask; 4 mL of Dulbecco's phosphate buffer (DPBS, supplier: Coring, item No.: 21-031-CVR, batch No.: 03318006) was added, and the residual serum was washed away; 2 mL of trypsin was added; The mixture was incubated in an incubator at 37° C. for 2 min, and the cells were digested; 10 mL of seeding medium was added to resuspend the cells; 0.6 mL of cell suspension was taken out and counted; • 3. The density of cells was adjusted to 1.88E+05 cells/mL using seeding medium, with 40 μL per well (7500\well); 40 μL of FreeStyle™ Expression medium was added around the cell plate; The plate was let stand at room temperature for 15 min and incubated at 37° C. with 5% CO2 for 20 hours. III. Signal Detection • 1. LiveBLAzer™-FRET B/G Substrate (CCF4-AM) assay reagents were formulated according to the instructions; • 2. 8 μL of 6×Substrate Mixture was added to each well of the cell plate; The plate was centrifuged at 1000 rpm for 15 seconds, covered with a film, and incubated at 23° C. for 2 hours; The cell plate was subjected to Envision […] detection. IV. Data Analysis • 1. The raw data were converted into % Effect by using an equation, and the EC50 value can be obtained by curve fitting with four parameters [“log(agonist) vs. response—Variable slope” model in GraphPad Prism]; • 2. Calculation formula: Ratio=(460 nm−blank)/(535 nm−blank) % Effect=(SampleRatio−Ave LCRatio)/(Ave HCRatio−Ave LCRatio)×100%

[1] = Pharmacokinetic evaluation in SD rats (iv and oral); type: in vivo, Sprague Dawley rats; conditions: male, Sprague-Dawley, rat, plasma, iv 1.0, po 2.0 mg/kg
Description: Assay Example 2: Pharmacokinetic Evaluation of Compounds in Rats
Object of the assay: To evaluate the in vivo pharmacokinetics of the compounds in SD rats
Sprague Dawley rats (male, 200-300 g, 7-9 weeks old, Shanghai SLAC)
The pharmacokinetic characteristics of the compounds in rodents after intravenous injection and oral administration were assayed according to the standard protocol. In the assay, the candidate compounds were formulated into clear solutions and administered to rats by single intravenous injection and oral administration. The vehicle for intravenous injection and oral administration was DMSO and 10% hydroxypropyl β-cyclodextrin in water (DMSO:10% hydroxypropyl β-cyclodextrin in water=5:95). Whole blood samples were collected within 48 hours, and centrifuged at 3000 g for 15 minutes. The supernatant was separated to give plasma samples. 4 times the volume of acetonitrile solution containing internal standard was added to precipitate protein. The resulting mixture was centrifuged and the supernatant was taken out. An equal volume of water was added and the mixture was centrifuged. The supernatant was taken out, and injected as a sample to quantitatively analyze the plasma drug concentration by LC-MS/MS analysis method. The pharmacokinetic parameters, such as peak concentration, time to peak, clearance rate, half-life, area under drug-time curve, bioavailability, etc., were calculated.

[2] = test system: ischemia-reperfusion cerebral infarction model; assay: Ischemia-reperfusion cerebral infarction (MCAO) model in male SD rats; type: in vivo; conditions: 90-min MCAO ischemia-reperfusion, 1 mg/kg tail vein after reperfusion, model group 32.4%, P<0.05 vs. model group
From the text: Assay Example 3: Pharmacodynamic Evaluation of the Compound in Ischemia-Reperfusion Cerebral Infarction Model in Male SD Rats Object of the assay: pharmacodynamic assay to explore the improvement of compound 32 on the ischemia-reperfusion cerebral infarction model in rats Materials of the assay: male SD rats (250 g-280 g, SPF grade, Zhejiang Vital River Laboratory Animal Technology Co., Ltd.) • 1) Anesthesia: Respiratory anesthesia with 2.5% isoflurane was used to maintain the depth of anesthesia for animals. • 2) Middle Cerebral Artery Occlusion (MCAO) Model: Animals weighed in the range of 250-280 g at the time of modeling surgery. […] For the administration of the assay sample group, compound 32 was injected through the tail vein of rats after reperfusion with a dose of 1 mg/kg and a volume of 5 mL/kg. • 3) Success criteria for the model: • 1: Within 60 minutes after surgery, the animals were scored according to the Bederson method, and the animals with a score of 2-3 were included in the group. • 2: Within 30-60 minutes of modeling, if the cerebral blood flow on the model side (left side) was reduced by more than 30% compared with that on the right side, the model was considered successful, and the animal was included in the group. […]

T1 sequence (P21453 whole entry): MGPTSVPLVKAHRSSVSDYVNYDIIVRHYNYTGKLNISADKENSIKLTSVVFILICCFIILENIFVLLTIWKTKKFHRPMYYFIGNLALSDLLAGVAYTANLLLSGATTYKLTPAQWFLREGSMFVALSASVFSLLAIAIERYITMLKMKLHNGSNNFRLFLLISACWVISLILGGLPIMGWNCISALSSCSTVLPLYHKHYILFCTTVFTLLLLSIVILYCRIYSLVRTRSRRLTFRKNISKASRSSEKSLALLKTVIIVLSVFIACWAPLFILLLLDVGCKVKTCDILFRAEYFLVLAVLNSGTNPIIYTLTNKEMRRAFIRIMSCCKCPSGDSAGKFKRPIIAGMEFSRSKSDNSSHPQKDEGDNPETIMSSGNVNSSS

EC50 (S1P1): 2.3 nM | Emax (S1P1; % Effect): 98.6% | clearance ([1]; intravenous, read-out: Clearance rate CL): 11.3 mL/min/kg | Vd ([1]; intravenous, read-out: Distribution in tissue Vdss): 4.35 L/kg | bioavailability ([1]; read-out: Bioavailability F): 92.7% | Cmax ([1]; read-out: Peak concentration Cmax): 556 nM | AUC(0-t) ([1]; po, 2 mg/kg, PO, read-out: Area under drug-time curve AUC0-last PO): 5.47 µM·h | half-life ([1]; po, 2 mg/kg, PO, read-out: Half life T1/2 (PO) (converted)): 5.44 h
Structure (SMILES): C/C(=N\OCc1ccc(OC(C)C)c(C(F)(F)F)c1)c1ccc2c(c1)CCC2N1CC(C(=O)O)C1 (stereo not drawn) [Compound 32]
Percentage of left cerebral infarct area [2]: 21.0%
